Experimental data from patent US11834424B2, “Compounds useful as chaperone-mediated autophagy modulators” (ALBERT EINSTEIN COLLEGE OF MEDICINE, priority 2018, dated 2023).
Read-outs that look alike come from different tables or passages of the source.

Assay: Pharmacokinetics (plasma and brain levels) in ICR (CD-1) mice
Type: in vivo
Conditions: male, mouse; for AUC(0-inf): read-out: AUCINF_obs; for MRT inf: read-out: MRTINF_obs
Experimental: ICR (CD-1) male mice were fasted at least three horns and water was available ad libitum before the study. Animals were housed in a controlled environment, target conditions: temperature 18 to 29° C., relative humidity 30 to 70%. Temperature and relative humidity was monitored daily. An electronic time controlled lighting system was used to provide a 12 h light/12 h dark cycle. 3 mice for each indicated time point. ICR (CD-1) mice were administered CA77 at 1 mg/kg i.v. and 30 mg/kg p.o. or CA77.1 at 1 mg/kg i.v. (FIG. 2A) and 10 mg/kg p.o. (FIG. 2B). Three (3) mice were included in each dosage and time group. Mice were sacrificed and plasma and brains were obtained at 0.083, 0.25, 0.50, 1.0, 2.0, 4.0, 8.0, and 24.0 hours after administration and drug concentration determined using LC-MS/MS. Brains were removed, homogenized with a tissue homogenizer in cold 5% w/v BSA in phosphate buffer saline (PBS). A 100 microliter aliquots of brain samples were dispensed in to glass culture tubes and mixed with ethyl acetate (800 μl), vortexed, and centrifuged. The organic layer was transferred to a fresh culture tube, dried under nitrogen, and reconstituted in mobile phase for quantitation. Pharmacokinetic parameters were determined by standard methods using Phoenix WinNonlin 6.3 software.
Tables 3A and 3B provide the concentrations of CA77 in ICR (CD-1) mouse plasma (3A) and mouse brain (3B) following i.v. administration of 1 mg/kg CA77. Table 3C provides the brain/plasma ratio of CA77 following i.v. administration of 1 mg/kg CA77. Shaded cells indicate data not included in statistics due to aberrant value. BLQ=Below Limit of Quantitation.
Tables 5A and 5B provide the concentrations of CA77.1 in ICR (CD-1) mouse plasma (5A) and mouse brain (5B) following i.v. administration of 1 mg/kg CA77.1. Table 5C provides the brain/plasma ratio of CA77.1 following i.v. administration of 1 mg/kg CA77.1. The plasma and brain pharmacokinetic parameters for CA77.1 are provided in Table 6. *—cells contain data not present in the statistics.

[1] = ICR (CD-1), brain, iv, 1 mg/kg, i.v. 1 mg/kg, mouse brain, read-out: Conc. in brain, Mean
[2] = ICR (CD-1), brain, iv, 1 mg/kg, i.v. 1 mg/kg, mouse brain, read-out: Conc. in brain, individual animal
[3] = ICR (CD-1), brain/plasma, iv, 1 mg/kg, i.v. 1 mg/kg, read-out: Brain/Plasma ratio, Mean
[4] = ICR (CD-1), brain/plasma, iv, 1 mg/kg, i.v. 1 mg/kg, read-out: Brain/Plasma ratio, individual animal
[5] = ICR (CD-1), plasma, iv, 1 mg/kg, i.v. 1 mg/kg, mouse plasma, read-out: Conc. in plasma, Mean
[6] = ICR (CD-1), plasma, iv, 1 mg/kg, i.v. 1 mg/kg, mouse plasma, read-out: Conc. in plasma, individual animal
[7] = plasma, iv, i.v. 1 mg/kg, ICR (CD-1) mice
[8] = plasma, po, p.o. 10 mg/kg, ICR (CD-1) mice

concentration at 8 h [1]: 4 ng/g
concentration at 8 h [2]: 4.92 ng/g
concentration at 24 h [1]: 0 ng/g
concentration at 24 h [2]: 0 ng/g
Kp at 0.083 h [3]: 5.64
Kp at 0.083 h [4]: 5.81
Kp at 0.25 h [3]: 6.19
Kp at 0.25 h [4]: 6.54
Kp at 0.5 h (ICR (CD-1), brain/plasma, iv, 1 mg/kg, i.v. 1 mg/kg, 0.50 h, read-out: Brain/Plasma ratio, Mean): 3.92
Kp at 1 h [3]: 7.52
Kp at 1 h [4]: 5.44
Kp at 2 h (ICR (CD-1), brain/plasma, iv, 1 mg/kg, i.v. 1 mg/kg, 2.00 h, read-out: Brain/Plasma ratio, Mean): 6.22
Kp at 4 h (ICR (CD-1), brain/plasma, iv, 1 mg/kg, i.v. 1 mg/kg, 4.00 h, read-out: Brain/Plasma ratio, Mean): 4
Kp at 8 h [3]: 2.23
Kp at 8 h [4]: 1.79
Kp at 24 h [3]: 0
Kp at 24 h [4]: 0
concentration at 0.083 h [5]: 190 ng/mL
concentration at 0.083 h [6]: 177 ng/mL
concentration at 0.25 h [5]: 129 ng/mL
concentration at 0.25 h [6]: 132 ng/mL
concentration at 0.5 h (ICR (CD-1), plasma, iv, 1 mg/kg, i.v. 1 mg/kg, mouse plasma, 0.50 h, read-out: Conc. in plasma, Mean): 276 ng/mL
concentration at 1 h [5]: 91 ng/mL
concentration at 1 h [6]: 110 ng/mL
concentration at 2 h (ICR (CD-1), plasma, iv, 1 mg/kg, i.v. 1 mg/kg, mouse plasma, 2.00 h, read-out: Conc. in plasma, Mean): 46 ng/mL
concentration at 4 h (ICR (CD-1), plasma, iv, 1 mg/kg, i.v. 1 mg/kg, mouse plasma, 4.00 h, read-out: Conc. in plasma, Mean): 6 ng/mL
concentration at 8 h [5]: 2 ng/mL
concentration at 8 h [6]: 2.74 ng/mL
concentration at 24 h [5]: 1 ng/mL
concentration at 24 h [6]: 0.556 ng/mL
AUC(0-t) [7]: 314 ng·h/mL
half-life [7]: 1.39 h
AUC(0-inf) [7]: 315 ng·h/mL
MRT inf [7]: 2 h
bioavailability (plasma, oral, p.o. 10 mg/kg vs i.v. 1 mg/kg, ICR (CD-1) mice): 46.4%
AUC(0-t) [8]: 1460 ng·h/mL
half-life [8]: 2.78 h
AUC(0-inf) [8]: 1460 ng·h/mL
Cmax (plasma, po, p.o. 10 mg/kg, ICR (CD-1) mice, read-out: Cmax): 464 ng/mL
MRT inf [8]: 3 h
Tmax (plasma, po, p.o. 10 mg/kg, ICR (CD-1) mice, read-out: Tmax): 1 h
SMILES: CC(=O)Nc1ccc(-c2cnc3cc(Cl)ccc3n2)cc1 [CA77.1, N-(4-(6-chloroquinoxalin-2-yl)phenyl)acetamide]
